Literature values as cited in US6183121A, “Hepatitis C virus helicase crystals and coordinates that define helicase binding pockets” (priority 1998, dated 2001).

Target: UvrD helicase, mutation of a conserved arginine in motif IV (Escherichia coli, UniProt P03018, R284A)
Details: mutant versus unmutated UvrD; M. C. Hall et al., J. Biol. Chem., 272 (1997)

UvrD helicase, mutation of a conserved arginine in motif IV, sequence (P03018 whole entry R284A): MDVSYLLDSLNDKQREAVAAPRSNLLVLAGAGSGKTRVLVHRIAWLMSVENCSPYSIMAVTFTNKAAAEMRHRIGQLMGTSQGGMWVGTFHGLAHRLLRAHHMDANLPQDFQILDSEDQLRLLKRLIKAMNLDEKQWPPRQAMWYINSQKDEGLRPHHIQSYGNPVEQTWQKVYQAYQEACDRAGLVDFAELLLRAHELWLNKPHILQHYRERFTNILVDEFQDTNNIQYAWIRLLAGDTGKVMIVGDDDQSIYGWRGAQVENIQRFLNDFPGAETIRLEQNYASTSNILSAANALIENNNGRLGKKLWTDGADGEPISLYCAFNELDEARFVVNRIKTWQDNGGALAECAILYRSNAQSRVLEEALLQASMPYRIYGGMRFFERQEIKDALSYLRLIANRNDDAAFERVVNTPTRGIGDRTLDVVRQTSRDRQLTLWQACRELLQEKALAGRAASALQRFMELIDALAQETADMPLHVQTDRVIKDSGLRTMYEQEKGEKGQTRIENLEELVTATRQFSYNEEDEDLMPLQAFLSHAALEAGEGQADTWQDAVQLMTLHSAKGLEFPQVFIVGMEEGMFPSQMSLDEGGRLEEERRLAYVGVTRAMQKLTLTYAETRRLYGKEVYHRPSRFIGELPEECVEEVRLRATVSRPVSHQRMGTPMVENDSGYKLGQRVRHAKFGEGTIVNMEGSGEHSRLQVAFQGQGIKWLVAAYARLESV

Compound: Nc1ncnc2c1ncn2[C@@H]1O[C@H](COP(=O)(O)OP(=O)(O)OP(=O)(O)O)[C@@H](O)[C@H]1O [ATP]
- increase of the ATP Km: 37 fold
